Measured values: ChEMBL document CHEMBL3885881, “DrugMatrix”

Species on record: Rattus norvegicus
Assay: DrugMatrix - Regimen: Daily Repeat
Format: toxicity, organism-based, Sprague-Dawley
Design: regimen Daily Repeat, gender Male, age 6-8 weeks
Conditions: in vivo, po, route oral GAVAGE, […]; for ABSOLUTE BASOPHIL / BASOPHIL / ABSOLUTE EOSINOPHIL / ABSOLUTE LYMPHOCYTE / ABSOLUTE MONOCYTE / ABSOLUTE SEGMENTED NEUTROPHIL / EOSINOPHIL / ERYTHROCYTE COUNT / HEMATOCRIT / HEMOGLOBIN / LEUKOCYTE COUNT / LYMPHOCYTE / MEAN CORPUSCULAR HEMOGLOBIN / MEAN CORPUSCULAR HEMOGLOBIN CONCENTRATION / MEAN CORPUSCULAR VOLUME / MONOCYTE / NEUTROPHIL / NUCLEATED RED BLOOD CELLS / PLATELET COUNT: tissue Blood; for ALANINE AMINOTRANSFERASE / ALKALINE PHOSPHATASE / ASPARTATE AMINOTRANSFERASE / BLOOD UREA NITROGEN / CARBON DIOXIDE / CHLORIDE / CHOLESTEROL / CREATINE PHOSPHOKINASE / CREATININE / GLUCOSE / LACTATE DEHYDROGENASE / LIPASE / PHOSPHORUS / POTASSIUM / SODIUM / TOTAL BILIRUBIN: tissue Plasma
[1] = 0 mg/kg, 72 h, dose level Control, time 3 day
[2] = 0 mg/kg, 120 h, dose level Control, time 5 day
[3] = 0.3 mg/kg, 72 h, dose level Low, time 3 day
[4] = 0.3 mg/kg, 120 h, dose level Low, time 5 day
[5] = 27 mg/kg, 72 h, dose level M1, time 3 day
[6] = 54 mg/kg, 72 h, dose level High, time 3 day

## CN(Cc1cnc2nc(N)nc(N)c2n1)c1ccc(C(=O)N[C@@H](CCC(=O)O)C(=O)O)cc1 [METHOTREXATE]
[1]
  ABSOLUTE BASOPHIL: 0 CELLS/uL
  BASOPHIL: 0%
[2]
  ABSOLUTE BASOPHIL: 0 CELLS/uL
  ABSOLUTE EOSINOPHIL: 331.5 CELLS/uL
  BASOPHIL: 0%
[3]
  ABSOLUTE BASOPHIL: 0 CELLS/uL
  ABSOLUTE EOSINOPHIL: 94 CELLS/uL
  ABSOLUTE LYMPHOCYTE: 7221.33 CELLS/uL
  ABSOLUTE MONOCYTE: 172.67 CELLS/uL
  ABSOLUTE SEGMENTED NEUTROPHIL: 2345.33 CELLS/uL
  BASOPHIL: 0%
  EOSINOPHIL: 0.67%
  ERYTHROCYTE COUNT: 5.78 x10E6/uL
  HEMATOCRIT: 37.2%
  HEMOGLOBIN: 14.3 G/DL
  LEUKOCYTE COUNT: 9.83 x10E3/uL
  LYMPHOCYTE: 70%
  MEAN CORPUSCULAR HEMOGLOBIN: 24.77 pg
  MEAN CORPUSCULAR HEMOGLOBIN CONCENTRATION: 38.47 G/DL
  MEAN CORPUSCULAR VOLUME: 64.33 fL
  MONOCYTE: 1.67%
  NEUTROPHIL: 27.67%
  NUCLEATED RED BLOOD CELLS: 0 /100WBC
  PLATELET COUNT: 997.67 x10E3/uL
  ALANINE AMINOTRANSFERASE: 69 u/L
  ALKALINE PHOSPHATASE: 597.33 u/L
  ASPARTATE AMINOTRANSFERASE: 118.33 u/L
  BLOOD UREA NITROGEN: 12.33 mg/dL
  CARBON DIOXIDE: 20 mmol/L
  CHLORIDE: 100.67 MEQ/L
  CHOLESTEROL: 42.33 mg/dL
  CREATINE PHOSPHOKINASE: 1224.33 u/L
  CREATININE: 0.11 mg/dL
  GLUCOSE: 237.67 mg/dL
  LACTATE DEHYDROGENASE: 410.67 u/L
  LIPASE: 11.67 u/L
  PHOSPHORUS: 14.63 mg/dL
  POTASSIUM: 6.55 MEQ/L
  SODIUM: 141.9 MEQ/L
  TOTAL BILIRUBIN: 0.13 mg/dL
[4]
  ABSOLUTE BASOPHIL: 0 CELLS/uL
  ABSOLUTE EOSINOPHIL: 124.67 CELLS/uL
  ABSOLUTE LYMPHOCYTE: 6857.33 CELLS/uL
  ABSOLUTE MONOCYTE: 225.67 CELLS/uL
  ABSOLUTE SEGMENTED NEUTROPHIL: 959 CELLS/uL
  BASOPHIL: 0%
  EOSINOPHIL: 1.33%
  ERYTHROCYTE COUNT: 5.9 x10E6/uL
  HEMATOCRIT: 37.7%
  HEMOGLOBIN: 14.3 G/DL
  LEUKOCYTE COUNT: 8.17 x10E3/uL
  LYMPHOCYTE: 82.33%
  MEAN CORPUSCULAR HEMOGLOBIN: 24.27 pg
  MEAN CORPUSCULAR HEMOGLOBIN CONCENTRATION: 37.93 G/DL
  MEAN CORPUSCULAR VOLUME: 63.93 fL
  MONOCYTE: 2.67%
  NEUTROPHIL: 13.67%
  NUCLEATED RED BLOOD CELLS: 0 /100WBC
  PLATELET COUNT: 1097 x10E3/uL
  ALANINE AMINOTRANSFERASE: 52.33 u/L
  ALKALINE PHOSPHATASE: 510 u/L
  ASPARTATE AMINOTRANSFERASE: 80.33 u/L
  BLOOD UREA NITROGEN: 10 mg/dL
  CARBON DIOXIDE: 24 mmol/L
  CHLORIDE: 102.33 MEQ/L
  CHOLESTEROL: 38 mg/dL
  CREATINE PHOSPHOKINASE: 556.67 u/L
  CREATININE: 0.1 mg/dL
  GLUCOSE: 165.67 mg/dL
  LACTATE DEHYDROGENASE: 131.67 u/L
  LIPASE: 6.67 u/L
  PHOSPHORUS: 12.1 mg/dL
  POTASSIUM: 6.83 MEQ/L
  SODIUM: 142.1 MEQ/L
  TOTAL BILIRUBIN: 0.2 mg/dL
[5]
  ABSOLUTE BASOPHIL: 0 CELLS/uL
  ABSOLUTE EOSINOPHIL: 0 CELLS/uL
  BASOPHIL: 0%
  EOSINOPHIL: 0%
  NUCLEATED RED BLOOD CELLS: 0 /100WBC
  CREATININE: 0.19 mg/dL
  TOTAL BILIRUBIN: 0.13 mg/dL
[6]
  ABSOLUTE BASOPHIL: 0 CELLS/uL
  ABSOLUTE EOSINOPHIL: 68 CELLS/uL
  ABSOLUTE LYMPHOCYTE: 3442 CELLS/uL
  ABSOLUTE MONOCYTE: 42 CELLS/uL
  ABSOLUTE SEGMENTED NEUTROPHIL: 1648 CELLS/uL
  BASOPHIL: 0%
  EOSINOPHIL: 1%
  ERYTHROCYTE COUNT: 7.17 x10E6/uL
  HEMATOCRIT: 43.93%
  HEMOGLOBIN: 17.27 G/DL
  LEUKOCYTE COUNT: 5.2 x10E3/uL
  LYMPHOCYTE: 69%
  MEAN CORPUSCULAR HEMOGLOBIN: 24.07 pg
  MEAN CORPUSCULAR HEMOGLOBIN CONCENTRATION: 39.3 G/DL
  MEAN CORPUSCULAR VOLUME: 61.23 fL
  MONOCYTE: 1%
  NEUTROPHIL: 29%
  NUCLEATED RED BLOOD CELLS: 0 /100WBC
  PLATELET COUNT: 1149 x10E3/uL
  ALANINE AMINOTRANSFERASE: 26.33 u/L
  ALKALINE PHOSPHATASE: 163 u/L
  ASPARTATE AMINOTRANSFERASE: 107 u/L
  BLOOD UREA NITROGEN: 23 mg/dL
  CARBON DIOXIDE: 18.67 mmol/L
  CHLORIDE: 94.5 MEQ/L
  CHOLESTEROL: 36 mg/dL
  CREATINE PHOSPHOKINASE: 1782.67 u/L
  CREATININE: 0.13 mg/dL
  GLUCOSE: 207.67 mg/dL
  LACTATE DEHYDROGENASE: 368.67 u/L
  LIPASE: 37 u/L
  PHOSPHORUS: 11.03 mg/dL
  POTASSIUM: 5.79 MEQ/L
  SODIUM: 137 MEQ/L
  TOTAL BILIRUBIN: 0.2 mg/dL
